A word on the half-life: it is how long it takes for the measured level to halve. Read a high half-life as slow loss.

A short description of series [1]: in vitro. To be noted: human, microsomes, pH 7.4.
Series [2] in a line: in vitro. To be noted: human, microsomes, pH 7.4. This is another data set of the same source.
The next series has as its system duck hepatitis B virus. To be noted: in vivo; cited from earlier work.
The test system of a further series is Newcastle disease virus. Particulars: cited from earlier work.
The next series relates to hepatic fibrosis. To be noted: 50 mg/kg or 100 mg/kg, by increasing phospho-FOXO1 expression; cited from earlier work.
For a further series, the system named is HBV. The series can be described thus: Preliminary screening of anti-HBV activity. It is filed as cell-based, hepatitis B virus. Particulars: inhibition of HBsAg and HBeAg expression, HepG2.2.15 cells.

Molecules are shown by their SMILES. Where only a bound is given, the exact number is not on record here.

Regarding `Cc1nccn1CCCCCCOc1cc2oc(=O)ccc2cc1O` [Compound 6d, 6-Hydroxyl-7-(6-(2-methylimidazole-1-yl)hexyloxy)-2H-benzopyran-2-one], the half-life in the series “in vitro [1]” and in “in vitro [2]” was more than 5 h throughout.
`O=c1ccc2cc(O)c(O)cc2o1` [Esculetin, 6,7-dihydroxy-2-H-1-benzopyran-2-one]: in the series on duck hepatitis B virus, the “levels of HBsAg and HBeAg in duck serum” value was “can reduce the levels of HBsAg and hepatitis B e antigen (HBeAg) in duck serum”. Moreover, in the series on Newcastle disease virus, the “Newcastle disease virus replication” value is recorded as “inhibited Newcastle disease virus replication well”. The hepatic fibrosis result in the series on hepatic fibrosis is on record as “improvement in hepatic fibrosis”.
For the compound `C[C@]12CC[C@H]3[C@@H](CCC4=CC(=O)CC[C@@]43C)[C@@H]1CC[C@@H]2O` [testosterone, reference compound], the half-life in the series “in vitro [2]” worked out at 0.4 h.
`Cc1nccn1CCCCCOc1cc2oc(=O)ccc2cc1O` [Compound 6c, 6-Hydroxyl-7-(5-(2-methylimidazole-1-yl)pentyloxy)-2H-benzopyran-2-one]: the half-life in the series “in vitro [1]” and in “in vitro [2]” was more than 5 h each time. Besides, the “anti-HBV activity (in words)” value in the series on HBV is listed as “moderate anti-HBV activity”.
In “in vitro [1]”, `O=c1ccc2ccc(O)cc2o1` [7-hydroxycoumarin, reference compound] displayed a half-life of 0.263 h.
On to `Cc1nccn1CCCCOc1cc2oc(=O)ccc2cc1O` [Compound 6b, 6-Hydroxyl-7-(4-(2-methylimidazole-1-yl)butoxy)-2H-benzopyran-2-one], for which the half-life in the series “in vitro [1]” and in “in vitro [2]” was more than 5 h each time. The “anti-HBV activity (in words)” value in the series on HBV was “moderate anti-HBV activity”.
